What all share (type): physicochemical
Series [1] can be described thus: Critical micelle concentration (CMC) in seawater. An excerpt: (§1) The properties of the surfactants in seawater including compatibility, critical micelle concentration (CMC) and the interfacial tension were investigated.
Series [2] is described as follows: Compatibility of surfactants in seawater. On the set-up: key: A = clear; B = phase separation. The following applies: in seawater (total salinity 57,670 ppm).
From the text: as §1

A short description of series [3]: Interfacial tension (IFT) of surfactants in seawater. The settings on record: for IFT 500 mg/L: surfactant 500 mg/L; for IFT 1000 mg/L: surfactant 1000 mg/L; for IFT 2000 mg/L: surfactant 2000 mg/L.
From the text: as §1

Turning to `CCCCCCCC/C=C\CCCCCCCCCCCC(=O)NCCC[N+](C)(C)CC(O)CO.[Cl-]` (stereo not drawn) [C22APDAC, Erucyl amidopropyl-2,3-dihydroxypropyl ammonium chloride], the CMC in series [1] turned out to be 9.58e-06 mol/L. Further, in series [2], the “Compatibility 25° C.” value was “A” and the “Compatibility 95° C.” value is given as “A”. In series [3], the “IFT 500 mg/L” value is 2.11 × 10^−4 mN/m, the “IFT 1000 mg/L” value was 1.21 × 10^−4 mN/m and the “IFT 2000 mg/L” value was 1.1 × 10^−3 mN/m.

The compound `CCCCCCCC/C=C\CCCCCCCCCCCC(=O)NCCC[N+](C)(C)CC(O)COC(C)=O.[Cl-]` (stereo not drawn) [C22APHAAC, erucyl amidopropyl-2-hydroxy-3-acetoxypropyl ammonium chloride] had a CMC in series [1] of 1.09e-05 mol/L. Moreover, in series [2], the “Compatibility 25° C.” value is recorded as “A” and the “Compatibility 95° C.” value is on record as “B”. For the same compound, in series [3], the “IFT 500 mg/L” value is 1.11 mN/m, the “IFT 1000 mg/L” value is reported as 4.83 × 10^−3 mN/m and the “IFT 2000 mg/L” value is recorded as 2.37 × 10^−3 mN/m.

On to `CCCCCCCC/C=C\CCCCCCCCCCCC(=O)NCCC[N+](C)(C)CC(O)COC(=O)C(F)(F)F.[Cl-]` (stereo not drawn) [C22APHFAC, Erucyl amidopropyl-2-hydroxy-3-(2,2,2 trifluoroacetoxy) propyl ammonium chloride], for which the CMC in series [1] amounted to 1.08e-05 mol/L. For the same compound, in series [2], the “Compatibility 25° C.” value was “A” and the “Compatibility 95° C.” value was “B”. Further, in series [3], the “IFT 500 mg/L” value was 0.31 mN/m, the “IFT 1000 mg/L” value is 1.87 × 10^−2 mN/m and the “IFT 2000 mg/L” value was 7.12 × 10^−3 mN/m.

In the case of `CCCCCCCC/C=C\CCCCCCCCCCCC(=O)NCCC[N+](C)(C)CC(O)COC(=O)CC.[Cl-]` (stereo not drawn) [C22APHPAC, Erucyl amidopropyl-2-hydroxy-3-propoionyloxy propyl ammonium chloride], the CMC in series [1] came out at 1.25e-05 mol/L. In addition, in series [2], the “Compatibility 25° C.” value was “A” and the “Compatibility 95° C.” value is “B”. Besides, in series [3], the “IFT 500 mg/L” value is 5.7 × 10^−2 mN/m, the “IFT 1000 mg/L” value was 7 × 10^−3 mN/m and the “IFT 2000 mg/L” value was 4.2 × 10^−2 mN/m.

Values taken from patent publication US11591292B2, “Preparation of cationic surfactants” (Saudi Arabian Oil Company, priority 2020, dated 2023).
